Assays:
[1] = 101.3 kPa, Liquid
[2] = refractive index (Na D-line) (dimensionless); conditions: 303.15 K; 101.33 kPa; Liquid
[3] = xn = mol fraction of the nth substance listed; conditions: 101.3 kPa, Liquid
[4] = refractive index (Na D-line) (dimensionless); xn = mol fraction of the nth substance listed; conditions: 303.15 K, 101.3 kPa, Liquid

C1COCCO1 [1,4-dioxane]
[1]
Conditions | mass density [kg/m3] | viscosity [mPa·s]
303.15 K | 1024.63 | 1.022
313.15 K | 1013.3 | 0.871
323.15 K | 1001.9 | 0.807

Conditions | refractive index
[2] | 1.4181

C1CCOC1 [tetrahydrofuran] + O
[3]
Conditions | mass density, 303.15 K [kg/m3] | mass density, 313.15 K [kg/m3] | mass density, 323.15 K [kg/m3] | viscosity, 303.15 K [mPa·s] | viscosity, 313.15 K [mPa·s] | viscosity, 323.15 K [mPa·s]
x2 = 0 | 876.6 | 865.65 | 854.3 | 0.463 | 0.4 | 0.372
x2 = 0.3081 | 894.98 | 884.04 | 872.9 | 0.574 | 0.519 | 0.34
x2 = 0.5004 | 912.11 | 901.53 | 890.7 | 0.793 | 0.668 | 0.578
x2 = 0.6319 | 927.1 | 916.82 | 901.63 | 1.001 | 0.833 | 0.698
x2 = 0.7276 | 941.82 | 931.96 | 921.9 | 1.208 | 0.98 | 0.807
x2 = 0.8002 | 955.23 | 945.99 | 936.5 | 1.344 | 1.061 | 0.868
x2 = 0.8573 | 966.73 | 958.34 | 949.3 | 1.384 | 1.084 | 0.871
x2 = 0.9034 | 977.2 | 969.74 | 962.2 | 1.341 | 1.021 | 0.829
x2 = 0.9413 | 984.94 | – | 972.7 | 1.226 | 0.92 | 0.74
x2 = 0.973 | 990.31 | 990.31 | 980.8 | 1.003 | 0.803 | 0.641

[4]
Conditions | refractive index
x2 = 0 | 1.4048
x2 = 0.3523 | 1.3994
x2 = 0.5503 | 1.3946
x2 = 0.6772 | 1.387
x2 = 0.7654 | 1.3786
x2 = 0.8304 | 1.3684
x2 = 0.8801 | 1.3613
x2 = 0.9195 | 1.3546
x2 = 0.9514 | 1.3405
x2 = 0.9778 | 1.3386

O [water] + C1CCOC1
[3], x1 = 1
Conditions | mass density [kg/m3] | viscosity [mPa·s]
303.15 K | – | 0.754
313.15 K | 991.91 | 0.624
323.15 K | 985.7 | 0.544

Conditions | refractive index
[4], x1 = 1 | 1.3326

C1COCCO1 [1,4-dioxane] + O
mass density [kg/m3], [3]
Conditions | x2 = 0 | x2 = 0.3523 | x2 = 0.5503 | x2 = 0.6772 | x2 = 0.7654 | x2 = 0.8304 | x2 = 0.8801 | x2 = 0.9195 | x2 = 0.9514 | x2 = 0.9778
303.15 K | 1024.63 | 1029.1 | 1032.4 | 1033.83 | 1033.22 | 1030.5 | 1025.6 | 1019.51 | 1012.1 | 1004.1
313.15 K | 1013.3 | 1018.5 | 1022.6 | 1024.7 | 1024.7 | 1022.7 | 1018.7 | 1013.4 | 1006.9 | 999.8
323.15 K | 1001.9 | 1007.8 | 1012.5 | 1015.2 | 1015.9 | 1014.6 | 1011.4 | 1006.9 | 1001.3 | 994.9

[4]
Conditions | refractive index
x2 = 0 | 1.4181
x2 = 0.3523 | 1.4116
x2 = 0.5503 | 1.4046
x2 = 0.6772 | 1.3972
x2 = 0.7654 | 1.391
x2 = 0.8304 | 1.3865
x2 = 0.8801 | 1.3798
x2 = 0.9195 | 1.3698
x2 = 0.9514 | 1.3517
x2 = 0.9778 | 1.3417

C1CCOC1 [tetrahydrofuran]
[1]
Conditions | mass density [kg/m3] | viscosity [mPa·s]
303.15 K | 876.6 | 0.463
313.15 K | 865.65 | 0.4
323.15 K | 854.3 | 0.372

Conditions | refractive index
[2] | 1.4048

O [water] + C1COCCO1
Conditions | mass density [kg/m3]
[3], 313.15 K, x1 = 1 | 992.3

Conditions | refractive index
[4], x1 = 1 | 1.3326

From the NIST ThermoML archive (doi:10.1021/je030196t)
